Values joined by “and” are separate entries in the source; they are usually repeats but may differ in a detail not shown here. Identical values can stand only once. “Also recorded” adds a separate entry of the source.
Legend:
[1] = system: mouse merlin-null Schwann cells; experiment: BrdU/7-AAD flow cytometry assay; type: cell-based
Method: (§1) FIGS. 11A-D. Phenotypic Proliferation Assays. (A) Merlin-null Schwann cells (384-well format) were treated with the indicated compounds and concentrations for 24 hours and labeled with EdU during the last 9 hours. Incorporation of EdU into S-phase cells was read on a Biotek H1 Hybrid reader. (B) The plate was also imaged with a Trophos high resolution fluorescence Plate Runner. (C). […] The cell population profile is shown and was analyzed using the ModFit program. (D). Merlin-null Schwann cells were grown as in C but were labeled with BrdU during the final 3 hours of treatment then stained with 7AAD. The distribution of BrdU- and 7AAD-labelled cells is shown and was analyzed with Diva program. The BD Cantos II flow cytometer was used above.
In yet another aspect, identification of compounds that affect proliferation of Merlin-null mouse Schwann cells can be performed by conducting a Click-iT EdU Microplate Assay (Life Technologies) in the 384 well-plate format and then follow-up with BrdU/7AAD and propidium iodide flow cytometer assays. […] The EdU-Click-iT assay uses a 2-step procedure to identify cells in the S-phase of the cell cycle. EdU (5-ethynyl-2′-deoxyuridine) is a DNA analog that has been modified with an alkyne and is incorporated by cells in S phase. It reacts with Alexa-Fluor-Oregon green azide in the presence of a copper solution to form a covalent bond. Fluorescence emission is measured on a Hybrid HT plate reader (FIG. 11A) as well as on a Trophos Plate RUNNER HD that captures images of the wells (FIG. 11B). This allows confirmatory cell counts to be obtained. Cell cycle profiles were collected using propidium iodide (PI) labeling of log-phase growing Merlin-null Schwann cells (FIG. 11C). The results were confirmed by acquiring the ratio of BrdU-positive to total 7AAD-labelled cells in an independent assay (FIG. 11D).

cofilin phosphorylation = experiment: Cofilin phosphorylation in mouse Schwann cells (summary statement); type: cell-based
caspase 3/7 activity = experiment: Caspase-3/7 activity (Apo-ONE Homogeneous Assay) in merlin-null Schwann cells; type: cell-based, mouse; details: for mechanism of apoptotic death in context of the Apo-One assay result: 384-well format, 8 hours
Method: (§2) FIGS. 10 A-C. Phenotypic Apoptosis Assays. (A). Merlin-null Schwann cells in a 384-well format were incubated with the indicated compounds for 8 hours. Caspase-3/7 activity was measure with Apo-ONE Homogeneous Assay (Promega). n=32 wells. (B). Merlin-null Schwann cells in a 6-well format were treated with compounds (10 uM) for 24 hours. Membrane asymmetry was detected with Violet Ratiometric assay and read on a BD Cantos II flow cytometer. (C). Population distribution for B is shown.
In yet another aspect, compounds may be identified which induce programmed cell death or inhibit proliferation of Merlin-null Schwann cells. Merlin-pathway assays may be conducted to identify the subset of compounds that modulate the activity of known merlin pathways. The effector caspase cascade is activated in many extrinsic and intrinsic cell death pathways^29. The CPCCG has an established HTS assay that measures caspase-3 activity based on the cleavage and enzymatic degradation of a fluorescent substrate containing the amino acid motif DEVD (DEVD-7-amino-4-trifluoromethyl coumarin, DEVD-AFC). Briefly, Merlin-null Schwann cells may be dispensed and test compounds added, and incubated as described for the primary screening assay. The effect of compounds on caspase-3 activity can be measured by first lysing the cells and centrifuging to pellet the debris. Next, 20 μl of 2× reaction buffer may be added, followed by 1 μL, DTT (0.01M final). Finally, 1uL of DEVD-AFC may be added and the plate may be incubated at 37° C. for 1.5 h. Enzyme activity may be measured on an Envision plate reader at Ex400 nm/Em505 nm. The enzyme activity may be calculated from a standard curve generated using recombinant caspase-3 enzyme (R&D System, Inc.) and expressed as fold-increase in activity. […] Transfer of phosphatidylserine and phosphatidylethanolamine from the inner to the outer leaflet of the plasma membrane changes the membrane potential that is detected by F2N12S. […]

[2] = system: mouse merlin-null Schwann cells; experiment: Crystal Violet cell number assay; type: cell-based
[3] = system: mouse merlin-null Schwann cells; experiment: MultiTox-Fluor cell viability assay with merlin-null Schwann cells (NF2-MTC)
Method: To ascertain whether this cell line was amenable to a HTS platform, the present inventors tested cell adherence and growth on several types of 384-well plates. Wells were seeded at varying cell densities (2,500-20,000 cells/well) and the ratio of live:dead cells was measured 24 hours later using the MultiTox-Fluor Multiplex Cytotoxicity Assay (Promega). This assay uses fluorescent probes to measure protease activities from live and dying cells. […] Therefore, the DMSO concentration for screening will be maintained at 0.5%.

[4] = system: cofilin phosphorylation (substrate for LIMK); experiment: Western blot of cofilin phosphorylation in normal rat Schwann cells; type: cell-based; details: 6 hours
[5] = system: mouse merlin-null Schwann cells; experiment: Propidium iodide flow cytometry cell cycle assay; type: cell-based
Method: as §1
In yet another aspect, identification of compounds that affect proliferation of Merlin-null mouse Schwann cells can be performed by conducting a Click-iT EdU Microplate Assay (Life Technologies) in the 384 well-plate format and then follow-up with BrdU/7AAD and propidium iodide flow cytometer assays. […] The EdU-Click-iT assay uses a 2-step procedure to identify cells in the S-phase of the cell cycle. […] Fluorescence emission is measured on a Hybrid HT plate reader (FIG. 11A) as well as on a Trophos Plate RUNNER HD that captures images of the wells (FIG. 11B). […]

[6] = system: mouse merlin-null Schwann cells; experiment: Violet Ratiometric membrane asymmetry / dead cell apoptosis flow cytometry assay; type: cell-based; details: 24 hours
Method: as §2
In yet another aspect, compounds may be identified which induce programmed cell death or inhibit proliferation of Merlin-null Schwann cells. Merlin-pathway assays may be conducted to identify the subset of compounds that modulate the activity of known merlin pathways. The effector caspase cascade is activated in many extrinsic and intrinsic cell death pathways^29. […] The effect of compounds on caspase-3 activity can be measured by first lysing the cells and centrifuging to pellet the debris. […] Enzyme activity may be measured on an Envision plate reader at Ex400 nm/Em505 nm. The enzyme activity may be calculated from a standard curve generated using recombinant caspase-3 enzyme (R&D System, Inc.) and expressed as fold-increase in activity. […] Transfer of phosphatidylserine and phosphatidylethanolamine from the inner to the outer leaflet of the plasma membrane changes the membrane potential that is detected by F2N12S. […]

[7] = 5 μM, 24 hr, BrdU for the last 3 hr

With `CC(C)C(=O)Nc1ncc(-c2cc(C(F)F)nn2-c2c(Cl)cccc2Cl)s1` [BMS-5] as the compound, how does the “cells in G0/G1 and S phase” value [1, 7] read?
The value was “massive depletion”.

And the “number of cells in G2/M” value [1, 7]?
Its value is “moderate increase; also recorded: moderately increase”.

What about the “cofilin phosphorylation in mouse Schwann cells (in words)” value (cofilin phosphorylation) of the same compound?
The value was “reduced cofilin phosphorylation”.

And the “mechanism of apoptotic death in context of the Apo-One assay result” value (caspase 3/7 activity)?
The value was “caspase3/7-independent”.

What about the “difference in caspase 3/7 activity versus untreated or DMSO controls” value (caspase 3/7 activity; 8 hours incubation, increasing doses) of the same compound?
Its value is “no significant difference”.

And the “change in the number of cells after 72 hours” value ([2]; 2 μM)?
Its value is “no change”.

And the “cell number compared to untreated or DMSO controls” value ([2]; 1 and 2 μM, 72 hours)?
The value was “decrease in the cell number”.

What about the “MTC number / proliferation with increasing concentration (in words)” value ([3]; 24 hours, various inhibitor concentrations) of the same compound?
Its value is “inhibited proliferation; also recorded: dose-respondent inhibition”.

What about the “MTC viability compared to DMSO control (in words)” value ([3]; BMS-5 5 μM, 24 hours) of the same compound?
Its value is “reduced MTC viability”.

And the EC50 ([3]; read-out: EC50: concentration that reduces the number of merlin-null Schwann cells by 50% of control, 24 hours, 96-well format, 32 replicates/concentration)?
Its EC50 is 1960 nM and ~2000 nM.

What about the IC50 ([4]; Western blot, read-out: amount needed to reduce cofilin phosphorylation by 50% of the untreated control) of the same compound?
Its IC50 is 200 nM.

What about the “cofilin phosphorylation (dose response, in words)” value ([4]; increasing BMS-5) of the same compound?
The value was “reduces the amount of cofilin phosphorylation; also recorded: cofilin phosphorylation decreases”.

And the “increase of cells in G2/M phase” value ([5]; 5 μM, 17 hr, Propidium Iodine staining)?
The value was “more than 100%”.

What about the “cell cycle profile (PI labeling and BrdU profiles, in words)” value ([5]; 5 uM, 22 hours) of the same compound?
The value was “accumulate in G2/M”.

What about the “number of cells with plasma membrane asymmetry” value ([6]; 2 μM) of the same compound?
The value was “does not significantly increase”.

`FC(F)(F)c1ccc(/C=C/c2nc(COc3ccc(CCCCn4ccnn4)cc3)co2)cc1` [TAK 165] was tested. Which “MTC viability compared to DMSO control (in words)” value ([3]; TAK 165 50 nM, positive control) did it give?
The value was “effective in reducing MTC viability”.

How did the “viability of cells, % of the DMSO control” value ([3]; 50 μM rapamycin, 384-well plate, 5,000 cells/well) turn out when `CO[C@H]1C[C@@H]2CC[C@@H](C)[C@@](O)(O2)C(=O)C(=O)N2CCCC[C@H]2C(=O)O[C@H]([C@H](C)C[C@@H]2CC[C@@H](O)[C@H](OC)C2)CC(=O)[C@H](C)/C=C(\C)[C@@H](O)[C@@H](OC)C(=O)[C@H](C)C[C@H](C)/C=C/C=C/C=C/1C` [rapamycin, Rapamycin] was run?
Its value is 20+/−1.4%.

With `N#C/C(=C\c1ccc(-c2cc(Cl)ccc2Cl)o1)C(=O)Nc1cccc2ncccc12` [AGK2] as the compound, how does the “anti-proliferative effects on the cells” value ([1]; 24 hours of drug treatment, S-phase labelling for the final 3 hours) read?
Its value is “did not reveal clear anti-proliferative effects”.

And the “mechanism of apoptotic death in context of the Apo-One assay result” value (caspase 3/7 activity)?
Its value is “caspase3/7-independent”.

With `COc1ccc2c(c[n+](C)c3c4cc5c(cc4ccc23)OCO5)c1OC.[Cl-]` [CHE, cheleryithrine chloride] as the compound, how does the “apoptotic death (Q1+Q3), share of Merlin-null Schwann cells” value ([6]; 10 uM, 6-well format, flow cytometer) read?
Its value is 93%.
